Source: the OligoGym collection
“And” between values parts separate entries of the source, which are not always exact repeats. Identical values can stand only once. After the bases stand the sugars from the 5' end (letter, count) and the backbone: PS all phosphorothioate, else s phosphorothioate and o phosphodiester by linkage. Methylation of C is not given here. e = 2'-O-(2-methoxyethyl) (MOE); k = constrained ethyl (cEt); d = 2'-deoxy (DNA)

Target: APOL1
Settings: ASO

| Sequence | target mRNA inhibition (A431, 0.25 µM) | target mRNA inhibition (A431, 1 µM) | target mRNA inhibition (A431, 2 µM) | target mRNA inhibition (A431, 0.0625 µM) | other results |
| --- | --- | --- | --- | --- | --- |
| GATGTGTTTAGGCATT (sugars k4 d9 k3, PS) | 71% and 83% | 90% and 91% |  |  |  |
| ACTTTATACCAGTGTC (sugars kkkddddkekeddddd, PS) |  |  | 65% |  |  |
| CAGTTTTGTAAGTGCA (sugars kkkddddkekekdddd, PS) |  |  | 87% |  |  |
| CTTCTGTTAGATACAA (sugars k4 d9 k3, PS) | 73% | 90% |  | 46% |  |
| TGTAAGTGCAACCAAT (sugars kkddddkekekkdddd, PS) |  |  | 43% |  |  |
| GTTATGAAATTATTGG (sugars kkkddddkekeddddd, PS) | 75% | 85% | 93% | 42% | target mRNA inhibition (A431, 0.0156 µM): 9% |
| ACGCAATGCTGACTTG (sugars kkddddkekekkdddd, PS) |  |  | 72% |  |  |
| TGGGCGAGCGATTGTC (sugars k4 d9 k3, PS) | 70% | 83% |  | 42% |  |
| GATTTTCCAACAAGGT (sugars k4 d9 k3, PS) | 80% | 92% |  | 54% |  |
| GAATTATGGAATTGCA (sugars kkddddkekekkdddd, PS) |  |  | 61% |  |  |
| GTTCAAAAGCAGCATT (sugars kkdddddkekeddddd, PS) |  |  | 89% |  |  |
| AGGTTTGGATGGAAGG (sugars k4 d9 k3, PS) | 73% | 88% |  | 36% |  |
| CCGTTCCAGGCCTCAT (sugars k4 d9 k3, PS) | 66% | 65% |  | 48% |  |
| GGGAATTATGGAATTG (sugars k3 d4 k3 e1 d5, PS) |  |  | 77% |  |  |
| TGTGCTCAGCTATGGA (sugars k4 d9 k3, PS) | 70% and 74% | 88% and 87% |  | 41% and 55% |  |
| GCTTTAAACTCAGGTG (sugars kkddddkekekkdddd, PS) |  |  | 50% |  |  |
| TCCTTGCTGCACTGCC (sugars k4 d9 k3, PS) | 88% | 95% |  | 67% |  |
| TTATATTTGATCCTCA (sugars k2 d4 e3 k2 d5, PS) |  |  | 96% |  |  |
| TCTCATGGTACAGGAG (sugars kdddddkekekddddd, PS) |  |  | 61% |  |  |
| CTGAAGATTGGCTCTG (sugars kkddddekekeddddd, PS) |  |  | 53% |  |  |
| TTTGTAAGTGCAACCA (sugars kkddddkekekkdddd, PS) |  |  | 87% |  |  |
| AAGCTTTAAACTCAGG (sugars kkddddkekekddddd, PS) |  |  | 48% |  |  |
| GCAGTTTTGTAAGTGC (sugars k2 d4 e3 k2 d5, PS) |  |  | 79% |  |  |
| CGCAATGCTGACTTGG (sugars k2 d4 e3 k2 d5, PS) |  |  | 88% |  |  |
| AGAACTCAAGTCAGTA (sugars k4 d9 k3, PS) | 67% and 83% | 86% and 88% |  | 38% and 62% |  |
| TTCTCATGGTACAGGA (sugars kkdddddkekeddddd, PS) |  |  | 78% |  |  |
| AGTTTTGTAAGTGCAA (sugars kkdddddkekeddddd, PS) |  |  | 92% |  |  |

| Sequence | target mRNA inhibition (A431, 0.25 µM) | target mRNA inhibition (A431, 1 µM) | target mRNA inhibition (A431, 2 µM) | target mRNA inhibition (A431, 0.0625 µM) | other results |
| --- | --- | --- | --- | --- | --- |
| CACATCATTGGGTTAT (sugars kkddddkekekddddd, PS) |  |  | 74% |  |  |
| GAGTATTGTTTTTGTG (sugars kkddddkekekddddd, PS) |  |  | 90% |  |  |
| GAGTATTGTTTTTGTG (sugars kkddddkdkdkddddd, PS) | 70% | 88% | 92% | 34% | target mRNA inhibition (A431, 0.0156 µM): 17% |
| ATTCAGAATTTCCACT (sugars kkddddkekekddddd, PS) |  |  | 76% |  |  |
| GCTAATTTTCTGACTG (sugars kekddddeekkddddd, PS) | 69% | 87% | 94% | 42% | target mRNA inhibition (A431, 0.0156 µM): 13% |
| TTTGTAAGTGCAACCA (sugars kdddddkekekddddd, PS) | 86% | 96% | 99% | 58% | target mRNA inhibition (A431, 0.0156 µM): 24% |
| GCATTCAGAATTTCCA (sugars k3 d4 k3 e1 d5, PS) | 90% | 92% | 95% | 73% | target mRNA inhibition (A431, 0.0156 µM): 33% |
| TCACATACTCTCTGGG (sugars k4 d9 k3, PS) | 62% | 77% |  | 24% |  |
| AGCTTTAAACTCAGGT (sugars kddddkekekeddddd, PS) |  |  | 52% |  |  |
| AAGTATTGCCAGCTAA (sugars k2 d4 e3 k2 d5, PS) |  |  | 63% |  |  |
| ATATCAGATGGGTACT (sugars kkddddekekeddddd, PS) |  |  | 27% |  |  |
| TTTATACCAGTGTCTT (sugars kkdddddkekeddddd, PS) |  |  | 84% |  |  |
| AAGTCAGTACAGAGCA (sugars k4 d9 k3, PS) | 79% | 89% |  | 52% |  |
| CTGTTCTAACTCTTGG (sugars k4 d9 k3, PS) | 79% | 87% |  | 61% |  |
| TCAGTCAGCAGGAGTA (sugars k4 d9 k3, PS) | 69% | 70% |  | 55% |  |
| ACATCATTGGGTTATG (sugars kdddddkekekddddd, PS) |  |  | 89% |  |  |
| CTTTAAACTCAGGTGA (sugars kkddddkekekkdddd, PS) |  |  | 70% |  |  |
| GGAATTATGGAATTGC (sugars k4 d9 k3, PS) | 93% | 98% |  | 74% | target mRNA inhibition (A431, 0.04 µM): 55% |
| GTTCTAACTCTTGGGC (sugars kkkddddkekeddddd, PS) |  |  | 66% |  |  |
| TCAGATGGGTACTTCT (sugars kkddddekekeddddd, PS) | 61% | 86% | 91% | 30% | target mRNA inhibition (A431, 0.0156 µM): 8% |
| TTTTAGAAAGGACACG (sugars k4 d9 k3, PS) | 67% | 85% |  | 42% |  |
| TTTGTAAGTGCAACCA (sugars kkkddddkekeddddd, PS) |  |  | 49% |  |  |
| GAATTATGGAATTGCA (sugars kkkddddkekekdddd, PS) |  |  | 61% |  |  |
| CAGTTTTGTAAGTGCA (sugars k2 d4 e3 k2 d5, PS) |  |  | 92% |  |  |
| GTATTTCTTGATGTGG (sugars kkddddkdkdkddddd, PS) |  |  | 87% |  |  |
| GGCAGTTTTGTAAGTG (sugars kkkddddkekekdddd, PS) |  |  | 32% |  |  |
| GAGTATTGTTTTTGTG (sugars k3 d5 k3 d5, PS) | 91% and 88% | 95% and 94% | 93% and 94% | 74% and 66% | target mRNA inhibition (A431, 0.0156 µM): 37% |

| Sequence | target mRNA inhibition (A431, 0.25 µM) | target mRNA inhibition (A431, 1 µM) | target mRNA inhibition (A431, 2 µM) | target mRNA inhibition (A431, 0.0625 µM) | other results |
| --- | --- | --- | --- | --- | --- |
| CTTTATACCAGTGTCT (sugars kekddddeekkddddd, PS) | 69% | 89% | 95% | 41% | target mRNA inhibition (A431, 0.0156 µM): 22% |
| TGTATTTCTTGATGTG (sugars kkkddddkekeddddd, PS) |  |  | 71% |  |  |
| GCTTTAAACTCAGGTG (sugars k2 d4 e4 k2 d4, PS) |  |  | 95% |  |  |
| GGGTTATGAAATTATT (sugars k2 d4 e3 k2 d5, PS) |  |  | 77% |  |  |
| GTTCAAAAGCAGCATT (sugars kkddddkdkdkddddd, PS) |  |  | 73% |  |  |
| GTATTTCTTGATGTGG (sugars kkddddkekekddddd, PS) |  |  | 75% |  |  |
| GGGTTATGAAATTATT (sugars kkkddddkekekdddd, PS) |  |  | 73% |  |  |
| CAGATGGGTACTTCTG (sugars kddddkekekeddddd, PS) |  |  | 23% |  |  |
| ACTGTTCTAACTCTTG (sugars k4 d9 k3, PS) | 92% | 95% |  | 85% |  |
| ATTTCTTGATGTGGTG (sugars kddddkekekeddddd, PS) |  |  | 81% |  |  |
| TTTATACCAGTGTCTT (sugars k3 d4 k3 e1 d5, PS) |  |  | 80% |  |  |
| GGAATTATGGAATTGC (sugars kkkddddkekeddddd, PS) |  |  | 55% |  |  |
| TATCAGATGGGTACTT (sugars kkkddddkekeddddd, PS) |  |  | 37% |  |  |
| AGTATTGCCAGCTAAG (sugars k2 d4 e4 k2 d4, PS) |  |  | 59% |  |  |
| GTTATGAAATTATTGG (sugars kkddddkdkdkddddd, PS) |  |  | 71% |  |  |
| AACATTGAAACACCAG (sugars k4 d9 k3, PS) | 71% | 89% |  | 35% |  |
| ACACATCATTGGGTTA (sugars kkddddkekekkdddd, PS) |  |  | 20% |  |  |
| GTTCTAACTCTTGGGC (sugars k3 d4 k3 e1 d5, PS) |  |  | 58% |  |  |
| ATTCAGAATTTCCACT (sugars kkkddddkekekdddd, PS) |  |  | 56% |  |  |
| GGAATTATGGAATTGC (sugars kekddddeekkddddd, PS) | 90% | 97% | 98% | 63% | target mRNA inhibition (A431, 0.0156 µM): 23% |
| GCTAATTTTCTGACTG (sugars kkddddkekekddddd, PS) | 86% | 92% | 96% | 63% | target mRNA inhibition (A431, 0.0156 µM): 28%; target mRNA inhibition (A431, 0.04 µM): 50% |
| GAGTATTGTTTTTGTG (sugars kkkddddkdkdkdddd, PS) |  |  | 54% |  |  |
| AAGATTGGCTCTGGCT (sugars kkddddkdkdkddddd, PS) |  |  | 65% |  |  |
| ATTCTCATGGTACAGG (sugars kkddddkekekddddd, PS) |  |  | 76% |  |  |
| GCAGGTTCACATGACA (sugars k4 d9 k3, PS) | 58% | 72% |  | 39% |  |
